From patent US10654834B2 (Venenum Biodesign, LLC, priority 2016, dated 2020)

Legend:
mouse TGR5 receptor = biological target: T1, mouse TGR5 receptor (Mus musculus, UniProt Q80SS6); assay: Mouse TGR5 HTRF cAMP production assay (HEK293-EBNA cells, Cisbio cAMP HiRange kit); type: cell-based; settings: HEK293-EBNA cells overexpressing mouse TGR5, HTRF cAMP assay
T1 construct: host or cells: HEK293-EBNA (293 c18, ATCC CRL10852)
T1 sequence (Q80SS6 1-329): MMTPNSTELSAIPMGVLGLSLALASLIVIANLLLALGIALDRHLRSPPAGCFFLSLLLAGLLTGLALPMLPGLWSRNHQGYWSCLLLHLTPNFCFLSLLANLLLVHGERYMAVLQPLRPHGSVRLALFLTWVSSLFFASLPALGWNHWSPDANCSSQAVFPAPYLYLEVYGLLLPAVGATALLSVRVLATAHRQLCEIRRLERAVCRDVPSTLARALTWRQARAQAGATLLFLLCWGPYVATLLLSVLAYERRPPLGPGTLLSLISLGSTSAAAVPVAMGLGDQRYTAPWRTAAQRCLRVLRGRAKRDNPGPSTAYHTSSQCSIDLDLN
How it was run: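 cAMP accumulation was read by competitive HTRF after 1 h room-temperature compound treatment, with a further 1 h conjugate incubation. Cells were mouse TGR5-overexpressing HEK293-EBNA in serum-free DMEM plus 500 μM IBMX. Compounds ran as 12-point half-log series in duplicate, and EC50 values were reported.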

[1] = Pharmacokinetic profile in mice after oral gavage; type: in vivo, mouse; settings: mouse; fasted male Hilltop mice, 10 mg/kg oral gavage, plasma; read-out: Cmax
How it was run: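 Plasma exposure (Cmax, AUC) by non-compartmental analysis of LC-MS/MS data, orbital blood taken at 0, 0.25, 0.5, 1, 2 and 4 h, each value averaging three mice. Dosing: 10 mg/kg oral gavage to overnight-fasted male Hilltop mice (8 weeks), vehicle PEG400/CMC/Tween-80.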

Structure (SMILES)	EC50 (mouse TGR5 receptor) [nM]	Cmax [1] [ng/mL]
N#Cc1ccc(CCNC(=O)[C@@H]2CCCN2c2cc(N3CCC(CCCC(=O)NCS(=O)(=O)O)CC3)nc(C(F)(F)F)n2)cc1 [Compound 66, (S)-(4-(1-(6-(2-((4-cyanophenethyl)carbamoyl)pyrrolidin-1-yl)-2-(trifluoromethyl)pyrimidin-4-yl)piperidin-4-yl)butanamido)-methanesulfonic acid]	< 100	7.3
N#Cc1ccc(CCNC(=O)[C@@H]2CCCN2c2cc(N3CCC(CCCC(=O)NCC(N)=O)CC3)nc(C(F)(F)F)n2)cc1 [Compound 68, (S)-1-(6-(4-(4-((2-amino-2-oxoethyl)amino)-4-oxobutyl)piperidin-1-yl)-2-(trifluoromethyl)pyrimidin-4-yl)-N-(4-cyanophenethyl)pyrrolidine-2-carboxamide]	< 100	15
N#Cc1ccc(CCNC(=O)[C@@H]2CCCN2c2cc(N3CCC(CO)CC3)nc(C(F)(F)F)n2)cc1 [Compound 1, (S)—N-(4-cyanophenethyl)-1-(6-(4-(hydroxymethyl)piperidin-1-yl)-2-(trifluoromethyl)pyrimidin-4-yl)pyrrolidine-2-carboxamide]		233
O=C(NCCC1CCN(c2cc(N3CCC[C@H]3C(=O)NCCc3ccc(C(F)(F)F)cc3)nc(C(F)(F)F)n2)CC1)NCCS(=O)(=O)O [Compound 86, (S)-2-(3-(2-(1-(2-(trifluoromethyl)-6-(2-((4-(trifluoromethyl)phenethyl)-carbamoyl)pyrrolidin-1-yl)pyrimidin-4-yl)piperidin-4-yl)ethyl)ureido)-ethanesulfonic acid]	< 100	13
N#Cc1ccc(CCNC(=O)[C@@H]2CCCN2c2cc(N3CCC(CCNC(=O)NCCC(=O)O)CC3)nc(C(F)(F)F)n2)cc1 [Compound 81, (S)-3-(3-(2-(1-(6-(2-((4-cyanophenethyl)carbamoyl)pyrrolidin-1-yl)-2-(trifluoromethyl)pyrimidin-4-yl)piperidin-4-yl)ethyl)ureido)-propanoic acid]	< 100	60
N#Cc1ccc(CCNC(=O)[C@@H]2CCCN2c2cc(N3CCC(CCCC(=O)N[C@@H](CCC(=O)O)C(=O)O)CC3)nc(C(F)(F)F)n2)cc1 [Compound 76, (S)-2-(4-(1-(6-((S)-2-((4-cyanophenethyl)carbamoyl)pyrrolidin-1-yl)-2-(trifluoromethyl)pyrimidin-4-yl)piperidin-4-yl)butanamido)-pentanedioic acid]	< 100	3
N#Cc1ccc(CCNC(=O)[C@@H]2CCCN2c2cc(N3CCC(CCNC(=O)NCCS(=O)(=O)O)CC3)nc(C(F)(F)F)n2)cc1 [Compound 78, (S)-2-(3-(2-(1-(6-(2-((4-cyanophenethyl)carbamoyl)pyrrolidin-1-yl)-2-(trifluoromethyl)pyrimidin-4-yl)piperidin-4-yl)ethyl)ureido)ethanesulfonic acid]	< 100	1.3
N#Cc1ccc(CCNC(=O)[C@@H]2CCCN2c2cc(N3CCC(CCNC(=O)NCCS(N)(=O)=O)CC3)nc(C(F)(F)F)n2)cc1 [Compound 80, (S)-N-(4-cyanophenethyl)-1-(6-(4-(2-(3-(2-sulfamoylethyl)ureido)-ethyl)piperidin-1-yl)-2-(trifluoromethyl)pyrimidin-4-yl)pyrrolidine-2-carboxamide]	< 100	1.2
N#Cc1ccc(CCNC(=O)[C@@H]2CCCN2c2cc(N3CCC(CCCC(=O)NCP(=O)(O)O)CC3)nc(C(F)(F)F)n2)cc1 [Compound 64, (S)-((4-(1-(6-(2-((4-cyanophenethyl)carbamoyl)pyrrolidin-1-yl)-2-(trifluoromethyl)pyrimidin-4-yl)piperidin-4-yl)butanamido)methyl)-phosphonic acid]	< 100	2.9
N#Cc1ccc(CCNC(=O)[C@@H]2CCCN2c2cc(N3CCC(CCCC(=O)N[C@@H](CCCNC(=N)N)C(=O)O)CC3)nc(C(F)(F)F)n2)cc1 [Compound 72, (S)-2-(4-(1-(6-((S)-2-((4-cyanophenethyl)carbamoyl)pyrrolidin-1-yl)-2-(trifluoromethyl)pyrimidin-4-yl)piperidin-4-yl)butanamido)-5-guanidinopentanoic acid]	< 100	1.6

Other lines, results leading:

EC50 (mouse TGR5 receptor) [nM]	Cmax [1] [ng/mL]	Structure (SMILES)
< 100	10	CS(=O)(=O)NCCNC(=O)CCCC1CCN(c2cc(N3CCC[C@H]3C(=O)NCCc3ccc(C(F)(F)F)cc3)nc(C(F)(F)F)n2)CC1 [Compound 91, (S)-1-(6-(4-(4-((2-(methylsulfonamido)ethyl)amino)-4-oxobutyl)piperidin-1-yl)-2-(trifluoromethyl)pyrimidin-4-yl)-N-(4-(trifluoromethyl)phenethyl)pyrrolidine-2-carboxamide]
< 100	0.7	N#Cc1ccc(CCNC(=O)[C@@H]2CCCN2c2cc(N3CCC(CCCC(=O)NCCNc4cc(C(=O)O)ncn4)CC3)nc(C(F)(F)F)n2)cc1 [Compound 101, (S)-6-((2-(4-(1-(6-(2-((4-cyanophenethyl)carbamoyl)pyrrolidin-1-yl)-2-(trifluoromethyl)pyrimidin-4-yl)piperidin-4-yl)butanamido)ethyl)amino)-pyrimidine-4-carboxylic acid]
< 100	5	CS(=O)(=O)NCCNC(=O)CCCC1CCN(c2cc(N3CCC[C@H]3C(=O)NCCc3ccc(C#N)cc3)nc(C(F)(F)F)n2)CC1 [Compound 93]
< 100	1.1	O=C(CCCC1CCN(c2cc(N3CCC[C@H]3C(=O)NCCc3ccc(C(F)(F)F)cc3)nc(C(F)(F)F)n2)CC1)NCCNc1ncnc2c1ncn2[C@@H]1O[C@H](CO)C(O)C1O (stereo partly drawn) [Compound 96, (2S)-1-(6-(4-(4-((2-((9-((2R,5R)-3,4-dihydroxy-5-(hydroxymethyl)-tetrahydrofuran-2-yl)-9H-purin-6-yl)amino)ethyl)amino)-4-oxobutyl)piperidin-1-yl)-2-(trifluoromethyl)-pyrimidin-4-yl)-N-(4-(trifluoromethyl)-phenethyl)-pyrrolidine-2-carboxamide]
< 100	630	N#Cc1ccc(CCNC(=O)[C@@H]2CCCN2c2cc(N3CCC(COCC(=O)O)CC3)nc(C(F)(F)F)n2)cc1 [Compound 88, (S)-2-((1-(6-(2-((4-cyanophenethyl)carbamoyl)pyrrolidin-1-yl)-2-(trifluoromethyl)pyrimidin-4-yl)piperidin-4-yl)methoxy)acetic acid]
